According to ChEMBL document CHEMBL5625244, “Synthesis of cannabidiol-based compounds as ACE2 inhibitors with potential application in the treatment of COVID-19” (Eur J Med Chem, 2023):
Activity calls are given as the source filed them. No cut-off for these calls is given here.

How the values were obtained:
[1] = biological target: T1, Angiotensin-converting enzyme 2 (Homo sapiens, UniProt Q9BYF1); assay: Inhibition of human ACE2 using Mca-APK(Dnp) as substrate incubated for 30 mins by fluorometer analysis
Target sequence in this assay (Q9BYF1 whole entry): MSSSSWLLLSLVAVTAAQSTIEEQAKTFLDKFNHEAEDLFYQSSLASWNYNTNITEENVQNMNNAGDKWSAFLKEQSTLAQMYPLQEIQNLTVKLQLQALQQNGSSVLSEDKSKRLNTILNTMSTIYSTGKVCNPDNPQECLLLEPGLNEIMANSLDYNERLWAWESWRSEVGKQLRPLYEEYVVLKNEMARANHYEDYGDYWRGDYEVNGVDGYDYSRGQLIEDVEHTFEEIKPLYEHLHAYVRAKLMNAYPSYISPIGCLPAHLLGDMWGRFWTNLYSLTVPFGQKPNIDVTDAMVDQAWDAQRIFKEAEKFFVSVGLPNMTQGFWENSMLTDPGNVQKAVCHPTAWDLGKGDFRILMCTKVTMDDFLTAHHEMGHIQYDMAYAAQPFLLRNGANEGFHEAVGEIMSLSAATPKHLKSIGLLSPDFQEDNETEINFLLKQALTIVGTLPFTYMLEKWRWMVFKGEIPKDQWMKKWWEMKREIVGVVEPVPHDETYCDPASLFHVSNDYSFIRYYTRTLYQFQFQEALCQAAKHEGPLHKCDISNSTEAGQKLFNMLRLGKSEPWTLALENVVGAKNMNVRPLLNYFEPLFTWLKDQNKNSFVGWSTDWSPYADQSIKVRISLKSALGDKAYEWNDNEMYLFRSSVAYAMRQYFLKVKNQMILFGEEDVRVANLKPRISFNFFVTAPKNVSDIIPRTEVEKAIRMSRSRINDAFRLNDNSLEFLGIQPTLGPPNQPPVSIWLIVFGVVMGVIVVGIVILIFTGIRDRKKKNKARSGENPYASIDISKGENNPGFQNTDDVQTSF

[2] = biological target: T1, Angiotensin-converting enzyme 2; assay: Inhibition of human ACE2 using Mca-APK(Dnp) as substrate at 10 nM incubated for 30 mins by fluorometer analysis
Target sequence in this assay (Q9BYF1 18-805 limits assumed): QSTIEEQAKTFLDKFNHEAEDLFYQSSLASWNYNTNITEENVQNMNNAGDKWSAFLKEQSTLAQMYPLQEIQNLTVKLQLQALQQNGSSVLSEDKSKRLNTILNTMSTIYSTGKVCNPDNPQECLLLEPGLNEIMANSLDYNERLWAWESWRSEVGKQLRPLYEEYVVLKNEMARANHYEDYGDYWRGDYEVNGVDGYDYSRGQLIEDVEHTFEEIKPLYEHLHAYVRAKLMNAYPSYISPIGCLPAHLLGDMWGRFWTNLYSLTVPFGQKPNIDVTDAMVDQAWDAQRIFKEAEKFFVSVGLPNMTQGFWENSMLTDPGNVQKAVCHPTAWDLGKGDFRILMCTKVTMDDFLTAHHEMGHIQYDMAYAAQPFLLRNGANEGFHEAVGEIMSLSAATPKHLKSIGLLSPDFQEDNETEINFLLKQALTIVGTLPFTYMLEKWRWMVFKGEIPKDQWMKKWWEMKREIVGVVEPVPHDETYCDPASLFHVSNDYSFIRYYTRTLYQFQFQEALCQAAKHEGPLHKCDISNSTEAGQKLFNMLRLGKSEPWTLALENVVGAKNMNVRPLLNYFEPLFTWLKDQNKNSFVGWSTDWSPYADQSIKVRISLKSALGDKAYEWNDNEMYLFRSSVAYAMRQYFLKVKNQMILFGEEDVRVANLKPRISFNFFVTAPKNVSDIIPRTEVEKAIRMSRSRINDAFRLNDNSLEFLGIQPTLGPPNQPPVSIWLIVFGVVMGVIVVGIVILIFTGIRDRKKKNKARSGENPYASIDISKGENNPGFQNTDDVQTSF

[3] = Cytotoxicity against African green monkey Vero cells assessed as reduction in cell viability upto 100 uM incubated for 48 hrs by Alamar blue assay; type: toxicity, cell-based; conditions: chlorocebus sabaeus
SARS-CoV-2 = assay: Antiviral activity against SARS-CoV-2 Wuhan infected in african green monkey Vero cells pre-infected for 1 hr followed by compound addition and measured after 48 hrs by RT-qPCR analysis; type: functional, organism-based; conditions: Severe acute respiratory syndrome coronavirus 2, Wuhan

Row | Compound | IC50 [1] | inhibition [2] | Activity [3] | IC50 (SARS-CoV-2)
1 | CCCCCc1cc(O)cc2c1C1CC(C)(C)CC(C)(C1)O2 (stereo unspecified) | 0.01 µM | Active | – | –
2 | CCCCCc1cc(OC(C)=O)c([C@@H]2C=C(C)CC[C@H]2[C@@H](C)CC=O)c(OC(C)=O)c1 | 0.04 µM | – | – | –
3 | C=C(C)[C@@H]1CCC(C)=C[C@H]1c1c(O)cc(CCCCC)cc1O [CANNABIDIOL] | > 30 µM | – | Non-Toxic | 72.8 µM
4 | CCCCCc1cc(O)c(C2C=C(C)CC(C)(C)C2)c(O)c1 (stereo unspecified) | 3.96 µM | – | – | –
5 | CC(=O)NCC(=O)N[C@@H](CC(=O)O)C(=O)N[C@@H](Cc1ccc(O)cc1)C(=O)N[C@@H](CO)C(=O)N[C@@H](Cc1cnc[nH]1)C(=O)N[C@H]1CSSC[C@@H](C(=O)N[C@H](C(=O)N[C@@H](Cc2ccc(O)cc2)C(=O)N2CCC[C@H]2C(=O)N[C@@H](CC(=O)O)C(=O)N2CCC[C@H]2C(=O)N[C@@H](CCC(=O)O)C(=O)NCC(=O)NCC(=O)NCC(N)=O)[C@@H](C)O)NC(=O)[C@H](CCCCN)NC(=O)[C@H](Cc2c[nH]c3ccccc23)NC(=O)[C@H](Cc2c[nH]c3ccccc23)NC(=O)[C@@H]2CCCN2C(=O)[C@H](Cc2ccc(O)cc2)NC(=O)[C@H](Cc2ccc(O)cc2)NC(=O)[C@H](CCCNC(=N)N)NC(=O)[C@H](CC(C)C)NC(=O)[C@@H]2CCCN2C(=O)[C@H](CO)NC1=O | 8.3 µM | – | – | –
6 | C=C(C)[C@@H]1CC=C(C)C(c2c(O)cc(CCCCC)cc2O)C1 (stereo partly specified) | – | – | Non-Toxic | 6.3 µM
7 | C=C(C)[C@@H]1CCC(C)=C[C@H]1c1c(OCC)cc(CCCCC)cc1OCC | 0.18 µM | – | Non-Toxic | 9.4 µM
8 | CCCCCc1cc(O)c([C@@H]2C=C(C)CC[C@H]2[C@@H](C)CCN2CCC(C)CC2)c(O)c1 | > 30 µM | – | Non-Toxic | 6.5 µM
9 | CCCCCc1cc(O)c([C@@H]2C=C(C)CC[C@H]2C(C)C)c(O)c1 | 1.37 µM | – | Non-Toxic | 1.9 µM
10 | C=C(C)[C@@H]1CCC(C)=C[C@H]1c1c(OCCCC)cc(CCCCC)cc1OCCCC | 0.17 µM | – | – | –
11 | C=C(C)[C@@H]1CCC(C)=C[C@H]1c1c(OCC(=O)OCC)cc(CCCCC)cc1OCC(=O)OCC | 0.37 µM | – | – | –
